# Patent publication US12303474B2, “S-enantiomerically enriched compositions of beta blockers for treating amyotrophic lateral sclerosis” (priority 2013, dated 2025)
# Where two headings read alike, the source gives them in different places.
# Legend:
# [1] = system: G93A SOD1 B6SJL hybrid (G93A) model; test: Disease progression score (JAX SOP) in G93A SOD1 transgenic mice
# Source text: The disease progression score is based on the JAX SOP (Ludolph A C, Bendotti C, Blaugrund E, Hengerer B, Loffler J P, Martin J, Meininger V, Meyer T, Moussaoui S, Robberecht W, Scott S, Silani V, Van Den Berg L H (ENMC Group For The Establishment Of Guidelines For The Conduct Of Preclinical And Proof Of Concept Studies In ALS/MND Models). 2007, which is incorporated by reference).
# [2] = system: G93A SOD1 B6SJL hybrid (G93A) model; settings: for Heart / gastrocnemius: end of study;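 for HR survival (FIG. 14): dosing began after ALS onset in G93A SOD1 mice, with survival as the endpoint, defined humanely as the animal failing to regain upright posture within 30 s when placed sideways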;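 for HR survival (FIG. 16): dosing began after ALS onset in G93A SOD1 mice, with survival as the endpoint, defined humanely as the animal failing to regain upright posture within 30 s when placed sideways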
# Protocol: (§1) Transgenic mice over-expressing a high copy number (25 copies) of mutated human SOD1 gene with a G93A point mutation, i.e., B6SJL-TgN [SOD1-G93A]1 Gur (G1H-G93A transgenic mice, JR2726; Hemizygote) (Gurney M E, et al., Science, 264, 1772-1775, 1994) (“G93A SOD1 B6SJL hybrid (G93A) model”), were used.
# To study the effect of the test compounds on skeletal muscle atrophy, the skeletal muscle mass were determined at the end of the study.
# The number of all mice in the population is indicated as “n” in at the bottom of FIGS. 21A-21C.
# The number of all mice in the population is indicated as “n” in at the bottom of FIGS. 20D-20F.
# The number of all mice in the population is indicated as “n” in at the bottom of FIGS. 21G-21I.
# [3] = system: G93A SOD1 B6SJL hybrid (G93A) model; settings: for HR survival (FIG. 14): all mice; for HR survival (FIG. 16): female mice; for HR survival (FIG. 15): male mice;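 for HR survival (FIG. 14): dosing began after ALS onset in G93A SOD1 mice, with survival as the endpoint, defined humanely as the animal failing to regain upright posture within 30 s when placed sideways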;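 for HR survival (FIG. 16): dosing began after ALS onset in G93A SOD1 mice, with survival as the endpoint, defined humanely as the animal failing to regain upright posture within 30 s when placed sideways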
# Source text: To study the effect of S-oxprenolol on survival, survival was monitored over time.
# [4] = system: G93A SOD1 B6SJL hybrid (G93A) model; test: Body weight and body composition (lean mass, fat mass; NMR scans) in G93A SOD1 transgenic mice; assay type: in vivo; settings: for Average Δ body weight / Average Δ fat mass / Average Δ lean mass: per day alive after disease onset
# Source text: as §1
# […] […] There were 16 mice in the S-oxprenolol group.
# The primary endpoint was survival, humanely defined as the ability of the animal to right itself in 30 seconds after being laid on its side. Secondary endpoints were body weight, body composition, spontaneous activity and food intake. Body weight of the animals was assessed weekly until onset of disease. Additionally, body composition (fat mass and lean body mass) was assessed using NMR scans (EchoMRI-100, Echo Medical Systems, Houston, USA) every 4 days. After onset of disease, body weight and body composition were assessed every two days until the end of the study. All personal handling the animals was strictly blinded to the randomized treatment allocation.
# To study the effect of S-oxprenolol on body weight, body weight was monitored over time.
# To study the effect of the test compounds on lean body mass, lean mass was determined at the end of the study.
# To study the effect of the test compounds on fat mass, the fat mass were determined at the end of the study.
# To study the effect of S-oxprenolol on body weight, body weight was monitored over time. […] The number of all mice in the population is indicated as “n” in at the bottom of FIGS. 20A-20C.
# To study the effect of the test compounds on lean body mass, lean mass was determined at the end of the study. […] The number of all mice in the population is indicated as “n” in at the bottom of FIGS. 20D-20F.
# To study the effect of the test compounds on fat mass, the fat mass were determined at the end of the study. […] The number of all mice in the population is indicated as “n” in at the bottom of FIGS. 20G-20I.
# [5] = 20 mg/kg/day vs. S-Oxprenolol (20)
smiles,measurement,setting,value
"C=CCOc1ccccc1OC[C@H](O)CNC(C)C [R-oxprenolol, (R)-1-(2-(allyloxy)phenoxy)-3-(isopropylamino)propan-2-ol]",HR Progression from score 1 to score 2 (FIG. 17),[1]; 10 mg/kg/day vs. placebo,0.47
same,HR Progression from score 1 to score 3 (FIG. 19),[1]; 10 mg/kg/day vs. placebo,0.60
same,HR Progression from score 2 to score 3 (FIG. 18),[1]; 10 mg/kg/day vs. placebo,1.04
same,HR Progression from score 1 to score 2 (FIG. 17),[1]; 20 mg/kg/day vs. placebo,0.54
same,HR Progression from score 1 to score 3 (FIG. 19),[1]; 20 mg/kg/day vs. placebo,0.63
same,HR Progression from score 2 to score 3 (FIG. 18),[1]; 20 mg/kg/day vs. placebo,0.74
same,BAT (brown adipose tissue),"[2]; all mice, 10 mg/kg/d",44.5 ± 3.4 mg
same,EDL (extensor digitorum longus),"[2]; all mice, 10 mg/kg/d",6.53 ± 0.47 mg
same,soleus,"[2]; all mice, 10 mg/kg/d",4.49 ± 0.36 mg
same,Heart,"[2]; all mice, 10 mg/kg/d",101.2 ± 2.7 mg
same,gastrocnemius,"[2]; all mice, 10 mg/kg/d",50.8 ± 3.3 mg
same,BAT (brown adipose tissue),"[2]; all mice, 20 mg/kg/d",43.3 ± 4.1 mg
same,EDL (extensor digitorum longus),"[2]; all mice, 20 mg/kg/d",5.89 ± 0.31 mg
same,soleus,"[2]; all mice, 20 mg/kg/d",5.49 ± 0.34 mg
same,Heart,"[2]; all mice, 20 mg/kg/d",100.7 ± 3.8 mg
same,gastrocnemius,"[2]; all mice, 20 mg/kg/d",47.0 ± 2.6 mg
same,BAT (brown adipose tissue),"[2]; female mice, 10 mg/kg/d",42.1 ± 4.6 mg
same,EDL (extensor digitorum longus),"[2]; female mice, 10 mg/kg/d",6.45 ± 0.75 mg
same,soleus,"[2]; female mice, 10 mg/kg/d",4.23 ± 0.51 mg
same,Heart,"[2]; female mice, 10 mg/kg/d",94.4 ± 3.4 mg
same,gastrocnemius,"[2]; female mice, 10 mg/kg/d",47.5 ± 4.1 mg
same,BAT (brown adipose tissue),"[2]; female mice, 20 mg/kg/d",32.6 ± 1.9 mg
same,EDL (extensor digitorum longus),"[2]; female mice, 20 mg/kg/d",5.98 ± 0.47 mg
same,soleus,"[2]; female mice, 20 mg/kg/d",5.09 ± 0.52 mg
same,Heart,"[2]; female mice, 20 mg/kg/d",88.5 ± 4.6 mg
same,gastrocnemius,"[2]; female mice, 20 mg/kg/d",43.6 ± 4.2 mg
same,BAT (brown adipose tissue),"[2]; male mice, 10 mg/kg/d",46.7 ± 4.9 mg
same,EDL (extensor digitorum longus),"[2]; male mice, 10 mg/kg/d",6.59 ± 0.61 mg
same,soleus,"[2]; male mice, 10 mg/kg/d",4.74 ± 0.51 mg
same,Heart,"[2]; male mice, 10 mg/kg/d",107.4 ± 3.4 mg
same,gastrocnemius,"[2]; male mice, 10 mg/kg/d",53.8 ± 5.1 mg
same,BAT (brown adipose tissue),"[2]; male mice, 20 mg/kg/d",53.9 ± 6.8 mg
same,EDL (extensor digitorum longus),"[2]; male mice, 20 mg/kg/d",5.81 ± 0.42 mg
same,soleus,"[2]; male mice, 20 mg/kg/d",5.84 ± 0.45 mg
same,Heart,"[2]; male mice, 20 mg/kg/d",112.0 ± 4.1 mg
same,gastrocnemius,"[2]; male mice, 20 mg/kg/d",49.9 ± 3.0 mg
same,HR survival (FIG. 14),[3]; 10 mg/kg/day vs. placebo,0.57
same,HR survival (FIG. 14),[3]; [5],1.32
same,HR survival (FIG. 14),[3]; 20 mg/kg/day vs. placebo,0.54
same,HR survival (FIG. 16),[3]; 10 mg/kg/day vs. placebo,0.60
same,HR survival (FIG. 16),[3]; [5],1.26
same,HR survival (FIG. 16),[3]; 20 mg/kg/day vs. placebo,0.41
same,HR survival (FIG. 15),[3]; 10 mg/kg/day vs. placebo,0.49
same,HR survival (FIG. 15),[3]; [5],1.24
same,HR survival (FIG. 15),[3]; 20 mg/kg/day vs. placebo,0.41
same,Δ body weight,"[4]; all mice, 10 mg/kg/d",-6.36 ± 0.39 g
same,Δ fat mass,"[4]; all mice, 10 mg/kg/d",-1.71 ± 0.15 g
same,Δ lean mass,"[4]; all mice, 10 mg/kg/d",-5.11 ± 0.32 g
same,Average Δ body weight,"[4]; all mice, 10 mg/kg/d",-146.1 ± 11.1 mg/day
same,Average Δ fat mass,"[4]; all mice, 10 mg/kg/d",-38.3 ± 4.2 mg/day
same,Average Δ lean mass,"[4]; all mice, 10 mg/kg/d",-125.8 ± -12.7 mg/day
same,Δ body weight,"[4]; all mice, 20 mg/kg/d",-5.21 ± 0.39 g
same,Δ fat mass,"[4]; all mice, 20 mg/kg/d",-1.59 ± 0.15 g
same,Δ lean mass,"[4]; all mice, 20 mg/kg/d",-4.60 ± 0.28 g
same,Average Δ body weight,"[4]; all mice, 20 mg/kg/d",-111.0 ± 9.4 mg/day
same,Average Δ fat mass,"[4]; all mice, 20 mg/kg/d",-32.6 ± 3.0 mg/day
same,Average Δ lean mass,"[4]; all mice, 20 mg/kg/d",-96.6 ± 6.4 mg/day
same,Δ body weight,"[4]; female mice, 10 mg/kg/d",-6.19 ± 0.42 g
same,Δ fat mass,"[4]; female mice, 10 mg/kg/d",-1.87 ± 0.22 g
same,Δ lean mass,"[4]; female mice, 10 mg/kg/d",-3.76 ± 0.41 g
same,Average Δ body weight,"[4]; female mice, 10 mg/kg/d",-137.4 ± 15.5 mg/day
same,Average Δ fat mass,"[4]; female mice, 10 mg/kg/d",-41.4 ± 5.3 mg/day
same,Average Δ lean mass,"[4]; female mice, 10 mg/kg/d",-121.3 ± 25.7 mg/day
same,Δ body weight,"[4]; female mice, 20 mg/kg/d",-4.85 ± 0.55 g
same,Δ fat mass,"[4]; female mice, 20 mg/kg/d",-1.71 ± 0.26 g
same,Δ lean mass,"[4]; female mice, 20 mg/kg/d",-4.55 ± 0.37 g
same,Average Δ body weight,"[4]; female mice, 20 mg/kg/d",-105.2 ± 13.1 mg/day
same,Average Δ fat mass,"[4]; female mice, 20 mg/kg/d",-35.6 ± 5.0 mg/day
same,Average Δ lean mass,"[4]; female mice, 20 mg/kg/d",-85.2 ± 9.1 mg/day
same,Δ body weight,"[4]; male mice, 10 mg/kg/d",-6.515 ± 0.65 g
same,Δ fat mass,"[4]; male mice, 10 mg/kg/d",-1.57 ± 0.21 g
same,Δ lean mass,"[4]; male mice, 10 mg/kg/d",-5.55 ± 0.47 g
same,Average Δ body weight,"[4]; male mice, 10 mg/kg/d",-153.5 ± 16.1 mg/day
same,Average Δ fat mass,"[4]; male mice, 10 mg/kg/d",-37.4 ± 6.4 mg/day
same,Average Δ lean mass,"[4]; male mice, 10 mg/kg/d",-129.7 ± 9.9 mg/day
same,Δ body weight,"[4]; male mice, 20 mg/kg/d",-5.53 ± 0.57 g
same,Δ fat mass,"[4]; male mice, 20 mg/kg/d",-1.48 ± 0.16 g
same,Δ lean mass,"[4]; male mice, 20 mg/kg/d",-5.12 ± 0.38 g
same,Average Δ body weight,"[4]; male mice, 20 mg/kg/d",-116.0 ± 13.7 mg/day
same,Average Δ fat mass,"[4]; male mice, 20 mg/kg/d",-29.9 ± 3.5 mg/day
same,Average Δ lean mass,"[4]; male mice, 20 mg/kg/d",-106.4 ± 8.5 mg/day
